Source: patent US20200260697A1, “METHODS OF MOUSE CLINICAL TRIAL” (CROWN BIOSCIENCE, INC. (TAICANG), priority 2016, published 2020)

How the values were obtained:
Type in all cases: in vivo, mouse
gastric cancer PDXs = assay: LMM (Equation 8) of the cisplatin dataset with ERCC1 expression as covariate; conditions: LMM Equation 8, gastric cancer PDXs
Excerpt: The LMM can readily incorporate PDX-level genomic covariates, e.g. gene expression and mutation, for biomarker analysis. We used the same dataset to examine if ERCC1 expression is related to cisplatin response in gastric cancer by fitting the following LMM:
lnVtij=β0+β1×Dayt+β2×Dayt×ERCC1j+β3×Dayt×Treatmentij+β4×Dayt×ERCC1j×Treatmentij+u0j+u1j×Dayt+u(0i|j)+u(1i|j)×Dayt+ϵtij (8)
In this model, β2 evaluates ERCC1 expression as a prognostic biomarker since it is for both vehicle and cisplatin groups. […] The coefficient β4 examines ERCC1 expression as a predictive biomarker for cisplatin. The fitted value of β4 is 0.0136, close to that of β2. Therefore, high ERCC1 expression acts adversely to cisplatin treatment (FIG. 9E). The parameter β3 quantifies cisplatin treatment and is estimated to be −0.0879. Results from our LMM may have clinical implications.

[1] = system: 42 PDXs including 13 esophageal cancers (ES), 21 gastric cancers (GA) and 8 lung cancers(LU); assay: Survival analysis (PFS, OS) of the cisplatin MCT dataset, additive frailty model and proportional hazard Cox model; conditions: cisplatin versus vehicle
Excerpt: Survival analysis are the most important endpoints of human clinical trials and can also be potentially adapted to MCT by first defining “clinical endpoint” of PFS (progress-free survival) and OS (overall survival) in preclinical setting. By the RECIST standard (Therasse P et al., J Natl Cancer Inst (2000) 92(3):205-16), we define PFS as the time until the starting tumor volume increases by 73%, and define OS as the time until the starting tumor volume triples, at which the tumor volume is usually between 300-600 mm^3, depending on initial tumor volumes. As we have shown in examples above, tumors already start exponential growth before it reaches 600 mm^3. The definitions are more of a custom and can certainly be adjusted otherwise. For example, Gao et al defined PFS as the time until tumor volume doubles (Gao H et al., Nat Med (2015) 21(11):1318-25). We can also define OS as the time until the starting tumor volume quadruples and so on.
In human oncology trails, survival time of patients is usually assumed to be independent of each other. […] Mice have correlated survival time both within a PDX and between treatments (FIGS. 10A-B). There is heterogeneity on hazard and drug response for PDXs. We used an additive frailty model to fit the survival data in MCTs (Rondeau V et al., J Statistical Software (2012) 47(4):1-28; Hanagal D D, Statistical Methods in Medical Research (2015) 24(6):936-36). In this model, the hazard function for the j-th mouse of the i-th PDX is
hij(t)=h0(t)exp(ui+(w+vi)Tij+β^TXi)
where h0(t) is the baseline hazard function. Parameter ui is the random effect (the first frailty term) associated with the i-th PDX that captures its characteristic growth, thus survival behavior, without drug treatment. Parameter vi is the random effect (the second frailty term) associated the i-th PDX that depicts its drug response deviating from the mean drug effect w of all PDXs. Tij is the treatment variable and it equals 0 for the vehicle treatment and 1 for the drug treatment; Xi is a vector for the PDX's covariates, e.g., cancer type and gene expression; β^T is the parameter vector quantifying the fixed effects of the covariates. The two random effects ui and vi assume a bivariate normal distribution with zero means, variance σ^2 and τ^2, and covariance ρστ. If the two random effects ui and vi are removed, the model reduces to the proportional hazard Cox model.
We used the cisplatin dataset in the previous example to illustrate modeling by the additive frailty model, using the R package frailtypack (Rondeau V et al., J Statistical Software (2012) 47(4):1-28). For simplicity, we used treatment as the sole covariate. By Equation 10, we observed that both frailty terms are significant larger than 0 (Wald test p-value<0.05) for PFS and OS analyses. […]

[2] = system: 42 PDXs including 13 esophageal cancers (ES), 21 gastric cancers (GA) and 8 lung cancers(LU); assay: MCT evaluating cisplatin response on 42 PDXs, tumor volume analysed by linear mixed model (Equation 7) and AUC ratio
Protocol: In a MCT, tumor volume is measured at multiple time points for each mouse, and these tumor volumes are often correlated, as in a typical longitudinal study. As shown above, almost all growth curves under vehicle treatment can be modeled by the linear Equation 2, and under drug treatment, about 80% of the growth curves are linear or close to linear. If we introduce a quadratic term on the day (x^2), more than 90% of the growth curves can be fitted with R^2>0.7, and 97% with R^2>0.4. With such strong linearity, the linear mixed models (LMM) is a proper and powerful tool to analyze the clustered longitudinal data from MCTs (West B T et al., “Linear Mixed Models: A Practical Guide Using Statistical Software, Second Edition”, Crc Press (2014)). Specifically, a 3-level model is appropriate, in which PDX and mouse are random factors, and covariates at the PDX-level and mouse-level can be included (FIG. 9A). We used an MCT to illustrate the application of LMMs for drug response evaluation and biomarker discovery. The MCT evaluated cisplatin response (4 mg/kg, daily dosing for 3 weeks) on 42 PDXs including 13 esophageal cancers (ES), 21 gastric cancers (GA) and 8 lung cancers(LU), each PDX had 5-9 mice (FIGS. 9B-C). A general model was specified for tumor volume, in log scale, at day t for mouse i within PDX j as follows: [formula] The model used vehicle in ES as the reference. There were […], β0 for the intercept, β1 for the time slope, β2 and β3 quantify the growth rate difference of GA and LU with respect to ES, β4 measures cisplatin effect, β5 and β6 check if GA and LU respond differently to cisplatin. The model also had 5 random effects, including the residual ϵtij. In a MCT, we can view the cohort of PDXs as random samples from a PDX or patient population, therefore, they have different growth rates, which is modeled by the random effect u1j associated with the time slope. Similarly, we model the growth difference for mice within a PDX by the random effect u1i|j. Mice and PDX may also have different starting tumor volumes, which are modeled by the two random effects on intercept: u0j and u0i|j. Therefore, our LMM captures both PDX-level and mouse-level growth heterogeneity under vehicle and drug treatments. […] From the model, we can get fitted cancer specific growth curves, as well as PDX and mouse specific growth curves. On average, cisplatin reduces tumor growth rate by about 38%.

N.N.[Cl][Pt][Cl] [cisplatin]
β3 (Day × Treatment), quantifies cisplatin treatment (gastric cancer PDXs; ERCC1 expression as covariate): −0.0879
β4 (Day × ERCC1 × Treatment), ERCC1 expression as predictive biomarker for cisplatin (gastric cancer PDXs; positive value: high ERCC1 expression acts adversely to cisplatin treatment): 0.0136
hazard ratio (HR) for OS ([1]; additive frailty model, OS = time until starting tumor volume triples): 0.21 (95% CI: 0.15-0.31)
hazard ratio (HR) for PFS ([1]; additive frailty model, PFS = time until starting tumor volume increases by 73%): 0.40 (95% CI: 0.31-0.50)
OS HR ([1]; proportional hazard Cox model): 0.36 (95% CI: 0.28-0.46)
PFS HR ([1]; proportional hazard Cox model): 0.48 (95% CI: 0.40-0.58)
response across cancer types ([2]; ES, GA and LU PDXs, p-values for β5 and β6 >0.05): comparable responses on the 3 cancer types
β4 (Day × Treatment) estimate, cisplatin effect on growth rate of ln tumor volume ([2]; LMM Equation 7, vehicle in ES as reference, REML estimate, second figure not defined, p-value 1.2E−19): −0.0282(0.0031)
β5 (Day × CancerTypeGA × Treatment) estimate ([2]; LMM Equation 7, checks if GA responds differently to cisplatin than ES, REML estimate, second figure not defined, p-value 0.35): 0.0037(0.0039)
β6 (Day × CancerTypeLU × Treatment) estimate ([2]; LMM Equation 7, checks if LU responds differently to cisplatin than ES, REML estimate, second figure not defined, p-value 0.84): −0.0011(0.0052)
reduction of tumor growth rate, on average (LMM) ([2]; cisplatin 4 mg/kg, daily dosing for 3 weeks, 42 PDXs, 5-9 mice each, LMM Equation 7): about 38%
reduction of tumor growth rate by the AUC ratio method ([2]; cisplatin 4 mg/kg, daily dosing for 3 weeks, 42 PDXs, AUC ratio method): 36%
